Laboratory results from US7667048B2, “Green and orange fluorescent labels and their uses” (Aries Associates, Inc., priority 2002, dated 2010).

Experiment: Fluorescence excitation and emission spectra
Assay type: physicochemical
Experimental: Fluorescence excitation and emission spectra were measured either using Hitachi F-4500 Fluorescence Spectrophotometer in ratio mode with a rhodamine B quantum counter. For fluorescence polarization experiments, two different detection instruments were used, a BMG Polarstar and an LJL Analyst. Molecular brightness measurements in 96-well and 384-well microtiter plates were performed in the following four instruments: (1) the LJL analyst, (2) the Tecan Ultra, (3) the PerSeptive and, (4) Chromagen's own photon counting instrument as described in U.S. patent application Ser. No. 09/552/803 and its continuation in part.

Molecule | fluorescence λ em (MeOH/H2O) [nm] | fluorescence λ ex (MeOH/H2O) [nm] | fluorescence λ em (H2O) [nm] | fluorescence λ ex (H2O) [nm] | further results
1-Hydroxy-3,6-dimethylsulfonamido-8-sulfonate-pyrene [compound 14] | 545 | 490 | – | – | –
3-Hydroxy-6,8-disulfonate-(4′-succinyl-6′-aminohexyl)-pyrene [compound 5] | – | – | 505 | 450 | –
3-Hydroxy-6,8-disulfonate-(4′-succinylamino-6′-isothiocyanyl-hexyl)-pyrene [compound 6] | – | – | 503 | 450 | –
Nc1cc(O)c2ccc3c(S(=O)(=O)O)cc(S(=O)(=O)O)c4ccc1c2c43 [compound 3, 1-Amino-3-hydroxy-6,8-disulfonate-pyrene] | – | – | 492 | 450 | –
COC(=O)CCC(=O)Nc1cc(O)c2ccc3c(S(=O)(=O)O)cc(S(=O)(=O)O)c4ccc1c2c34 [compound 4, 3-Hydroxy-6,8-disulfonate-methylsuccinylamino-pyrene] | – | – | 492 | 450 | –
NCCCC(=O)c1cc(O)c2ccc3c(S(=O)(=O)O)cc(S(=O)(=O)O)c4ccc1c2c34 [compound 7, 3-Hydroxy, 6,8-disulfonate-aminoethylacetyl-pyrene] | 502 | 450 | – | – | –
CN(C)S(=O)(=O)c1cc(O)c2ccc3c(S(=O)(=O)N(C)CCCN)cc(S(=O)(=O)N(C)C)c4ccc1c2c43 [compound 15, 1-Hydroxy-3,6-di-(dimethylsulfonamido)-8-(3-aminopropyl-methyl-sulfonamido)-pyrene] | 548 | 490 | – | – | –
CN(C)S(=O)(=O)c1cc(O)c2ccc3c(S(=O)(=O)N(C)CCCN=C=S)cc(S(=O)(=O)N(C)C)c4ccc1c2c43 [compound 16] | 548 | 490 | – | – | –
CN(C)S(=O)(=O)c1cc(O)c2ccc3c(S(=O)(=O)Nc4ccc(CCCC(=O)ON5C(=O)CCC5=O)cc4)cc(S(=O)(=O)N(C)C)c4ccc1c2c34 [compound 17, 1-Hydroxy-3,6-di(dimethylsulfonamido)-8-(4′-succinimidylbutyrate)-phenylsulfonamido-pyrene] | – | – | – | – | fluorescence λ em (DMSO/Phosphate buffer): 553 nm; fluorescence λ ex (DMSO/Phosphate buffer): 510 nm
